In US20260174790A1, “HUMAN AND MURINE OPRM1 PROMOTERS AND USES THEREOF” (The Trustees of the University of Pennsylvania, priority 2022, published 2026):

What was measured:
MOR+ CeA neurons [1] = assay: In vivo fiber photometry, hot water hind paw stimulation; set-up: species or system mouse; details: mMORp-GCaMP6f mice, morphine i.p. 10 mg/kg 30 minutes prior to hot water hind paw stimulations
Procedure: For fiber photometry studies, mice were injected with ˜300 nL of recombinant AAV1-mMORp-GCaMP6f (titer: 3.69×10^12 gc/mL) in the right CeA, followed immediately by the placement of a fiberoptic implant (˜4.7 mm fiber, Doric Lenses) approximately 0.1-0.2 mm above the DV coordinate of the injection site (same as listed above). After setting the fiberoptic in position, MetaBond (Parkel1) and Jet Set dental acrylic (Lang Dental) were applied to the skull of a mouse to rapidly and firmly fix the fiberoptic in place. In brief, after exposure of the skull, the bone was scored with a scalpel blade to provide grooves for the MetaBond to settle into and provide better adhesion. After lowering the fiberoptic into the craniotomy hole, the skull was cleaned with saline and then fully air dried. […] All mice were monitored for up to two days following surgical procedures to ensure the animals' proper recovery.
Hot water hindpaw stimulation test: To evaluate responses to acute, noxious thermal stimulations during fiber photometry testing, we used a hot water hind paw application protocol described previously^102. […] Animals were continuously recorded by a web camera positioned to face the front of the cylinder in which the animal was housed, and all relevant behaviors time-locked to calcium mediated events were scored post-hoc using the video footage. […]

MOR+ CeA neurons [2] = assay: In vivo fiber photometry, chronic morphine drinking and naloxone precipitated withdrawal; set-up: species or system mouse; details: mMORp-GCaMP6f mice, forced morphine drinking (0.3 mg/ml 3 days, 0.5 mg/ml 4 days), naloxone i.p. 3 mg/kg, 20-minute window
Procedure: For fiber photometry studies, mice were injected with ˜300 nL of recombinant AAV1-mMORp-GCaMP6f (titer: 3.69×10^12 gc/mL) in the right CeA, followed immediately by the placement of a fiberoptic implant (˜4.7 mm fiber, Doric Lenses) approximately 0.1-0.2 mm above the DV coordinate of the injection site (same as listed above). After setting the fiberoptic in position, MetaBond (Parkel1) and Jet Set dental acrylic (Lang Dental) were applied to the skull of a mouse to rapidly and firmly fix the fiberoptic in place. In brief, after exposure of the skull, the bone was scored with a scalpel blade to provide grooves for the MetaBond to settle into and provide better adhesion. […] All mice were monitored for up to two days following surgical procedures to ensure the animals' proper recovery.
In Vivo Fiber Photometry Recordings and Analysis: Optical recordings of GCaMP6f fluorescence were acquired using an RZ10× fiber photometry detection system (Tucker-Davis Technologies), consisting of a processor with Synapse software (Tucker-Davis Technologies), and optical components (Doric Lenses and ThorLabs). Excitation wavelengths generated by LEDs (460 nm blue light and 405 nm violet light) were relayed through a filtered fluorescence minicube at spectral bandwidths of 460-495 and 405 nm to a pre-bleached mono fiberoptic patch cord connected to the implant on top of each animal's head. […]

spinal MOR+ neurons = assay: Von Frey filament Up-Down test with chemogenetic inhibition; format: in vivo, mouse; details: intrathecal DCZ 10 pg, mMORp-hM4Di-mCherry injected mice; von Frey and hot plate
Procedure: For spinal cord chemogenetic studies, mice were injected intraparenchymally at four sites (bilaterally at L4 and L5) with 400 nL of AAV1-mMORp-hM4Di-mCherry (titer: 3.1×10^12 gc/mL) to drive transduction of inhibitory DREADD receptor in spinal cord neurons. Using a modified, minimally invasive method for microinjection in the mouse spinal dorsal horn without laminectomy^91, mice were first anesthetized with isoflurane gas in oxygen (initial dose=4%, maintenance dose=2%), the back shaved and wiped with alcohol and povidone-iodine followed by a 2 cm incision made through the skin, and then placed within a modified Kopf stereotaxic frame to stabilize the T13 and L3 spinal column vertebrae. Next, the spinal column was slightly arched upwards by ˜30°, 0.2 mg/kg lidocaine was administered to the overlying muscle, which was then was gently dissected to expose the interspace above and below the T13 vertebrae, allowing direct access to the L3-5 spinal cord dorsal surface. […]
Von Frey filament touch test: To evaluate mechanical reflexive sensitivity, we used a logarithmically increasing set of 8 von Frey filaments (Stoelting), ranging in gram force from 0.07 to 6.0 grams. […] Using the Up-Down statistical method^100, the 50% withdrawal mechanical threshold scores were calculated for each mouse and then averaged across the experimental groups. […]

Structure (SMILES)	calcium mediated event peak z-score (MOR+ CeA neurons [1])	average post naloxone calcium events (MOR+ CeA neurons [2])	analgesic effects on activation of mMORp-hM4Di in spinal cord neurons (spinal MOR+ neurons)
CN1CC[C@]23c4c5ccc(O)c4O[C@H]2[C@@H](O)C=C[C@H]3[C@H]1C5.O=S(=O)(O)O [morphine, morphine sulfate]	7.6	91	–
CN1CCN(C2=Nc3ccccc3Nc3ccccc32)CC1 [DCZ, deschloroclozapine]	–	–	analgesic effects similar to CNO treatment
